Data on 10 compounds can be found in patent publication US11149052B2, “2′3′-cyclic dinucleotides” (Institute of Organic Chemistry and Biochemistry, ASCR, V.V.I, priority 2018, dated 2021).

The target in experiment [1] is T1, WT STING (truncated human WT STING protein) (Homo sapiens, UniProt Q86WV6, H232R).
T1 construct: truncated human WT STING or AQ STING (amino acid residues 140-343); 8xHis (N, cleaved yes); SUMO (N, cleaved yes); made in house; host or cells: E. coli Rosetta-gami B (DE3)
The experiment is described as follows: Differential Scanning Fluorimetry with WT STING. The class given is binding. The conditions noted are these: thermal shift vs apoprotein; 150 μM CDN; 0.1 mg/ml STING protein; SYPRO Orange; read-out: DSF ΔTm (° C.) WT STING. The procedure: (§1) Purified PCR products were cleaved with restriction enzymes BamHI (cat. #R0136S, NEB, Ipswich, USA) and NotI (cat. #R0189S, NEB, Ipswich, USA) and cloned into the pSUMO vector linearized with the identical enzymes.
(§2) DNase I (cat. #D5025, Sigma Aldrich, Czech Republic) and RNase A (cat. #R6513, Sigma Aldrich, Czech Republic) were added (final concentration […]) together with MgCl2 (final concentration 5 mmol·l^−1) to the homogenate and bacteria were lysed using French Press G-M™ High-Pressure Cell Press Homogenizer (1500 psi, 3 cycles). […] The resin was poured into a chromatography column, washed with 50 ml buffer A (50 mmol·l^−1 TrisCl (pH 8.0), 800 mmol·l^−1 NaCl, 3 mmol·l^−1β-mercaptoethanol; 10% glycerol; 20 mmol·l^−1 imidazole) and 8-His-SUMO tagged STING proteins were eluted with 15 ml buffer A containing 300 mmol·l^−1 imidazole. […] Proteins were concentrated with Amicon® Ultra-15 10 K device (cat. #UFC901008, Merck Millipore, Billerica, USA) and flash frozen in liquid N2.
(§3) Differential Scanning Fluorimetry with WT STING and AQ STING
(§4) 20 μL solutions of the reaction mixtures were pipetted in triplicates into 96 well optical reaction plates and thermal denaturation of samples were performed on real time PCR cycler (LightCycler® 480 Instrument II—Roche, Base^1, Switzerland). The first derivative of the thermal denaturation curves was performed to calculate denaturing temperatures of STING-CDN complexes and STING apoproteins. The thermal shift for each CDN was calculated by subtracting the average denaturing temperature of STING apoprotein from the average denaturing temperature of STING CDN complex.
For orientation: DSF heats the sample and reads unfolding from a dye or from intrinsic fluorescence.

Experiment [2] deals with T2, AQ STING (truncated human STING G230A-R293Q allelic form) (Homo sapiens, UniProt Q86WV6, G230A/H232R/R293Q).
T2 construct: truncated human WT STING or AQ STING (amino acid residues 140-343); 8xHis (N, cleaved yes); SUMO (N, cleaved yes); made in house; host or cells: E. coli Rosetta-gami B (DE3)
The experiment is described as follows: Differential Scanning Fluorimetry with AQ STING. The class given is binding. The conditions noted are these: thermal shift vs apoprotein; 150 μM CDN; 0.1 mg/ml STING protein; SYPRO Orange; read-out: DSF ΔTm (° C.) AQ STING. The protocol:
as §1, §2, §3, §4

Experiment [3] deals with human wild type STING (WT STING) (Homo sapiens, UniProt Q86WV6, H232R). The experiment is described as follows: Digitonin assay using 293T wtSTING-FL reporter cells (ISRE firefly luciferase reporter). The experiment is classed as cell-based. The conditions noted are these: 293T wtSTING-FL cells; 30 min in Digitonin buffer, then 5 hours; luciferase read-out; 8-point dose-response curve; read-out: Digitonin assay EC50 (μmol · l^−1) WT STING. The source says:
Two complementary oligonucleotides of the sequence […] […] […] […] […] The oligonucleotides were mixed in equal molar amounts, hybridized, and cleaved by restriction endonucleases HindIII (cat. #. R0104S, NEB, Ipswich, USA) and BglII (cat. #R0144S, NEB, Ipswich, USA). Ultimately, they were ligated into plasmid pGL4.27 (cat. #E6651, Promega, Madison, USA) linearized with the same enzymes. As result the sequence with four ISRE sites was placed upstream of the minimum promoter of firefly luciferase reporter gene.
After 5 minutes incubation at room temperature (RT), 250 μL of the mixture was added dropwise to the cells in one well.
Transfected cells were seeded onto poly-D-lysine coated six well plates at density 50,000 cells per 1 cm^2 in DMEM medium with high glucose containing 10% heat inactivated FBS, 30 μg/mL blasticidin (cat. #ant-bl-05, InvivoGen, San Diego, USA), 0.06 mg/ml Penicillin G and 0.1 mg/ml Streptomycin Sulfate (both cat. #. L0018, Biowest, Riverside, USA). The medium was replenished every 3-4 days until visible colonies of cells resistant to blasticidin were formed.
Blasticidin resistant cells stably expressing WT STING were further transfected with […] plasmid following the same procedure as described above. […] Homogeneous culture of stably double transfected cells was prepared by limiting dilution of cells in 96 well plates and wells with cells were selected that originated from a single cell.
The medium was removed next day and three fold serial dilutions of compounds in Digitonin buffer containing 50 mmol·l^−1 HEPES (cat. #H3375, Sigma Aldrich, Czech Republic) pH 7.0, 100 mmol·l^−1 KCl, 3 mmol·l^−1 MgCl2, 0.1 mmol·l^−1 DTT (cat. #D0632, Sigma Aldrich, Czech Republic), 85 mmol·l^−1 Sucrose (cat. #S7903, Sigma Aldrich, Czech Republic), 0.2% BSA (cat. #A2153, Sigma Aldrich, Czech Republic), 1 mmol·l^−1 ATP (cat. #A1852, Sigma Aldrich, Czech Republic), 0.1 mmol·l^−1 GTP (cat. #G8877, Sigma Aldrich, Czech Republic), and 10 μg/mL Digitonin A (cat. #D141, Sigma Aldrich, Czech Republic) were added to the cells. The buffer was removed after 30 minutes incubation at 37° C. with 5% CO2, the cells were washed once with 100 μl of cultivation medium, and 100 IA of medium was added to each well. The plates with cells were incubated for 5 hours at 37° C. with 5% CO2, 50 μl of the medium was removed and 30 μl of ONE-Glo™ Luciferase Assay System reagent (cat. #E6120, Promega, Madison, USA) was added to each well. Luminesce was read on Synergy H1 (Biotek, Winooski, USA).
(In general: A reporter such as luciferase makes a cellular process visible.)

Structures are written as SMILES.

T1 sequence (Q86WV6 140-343 H232R): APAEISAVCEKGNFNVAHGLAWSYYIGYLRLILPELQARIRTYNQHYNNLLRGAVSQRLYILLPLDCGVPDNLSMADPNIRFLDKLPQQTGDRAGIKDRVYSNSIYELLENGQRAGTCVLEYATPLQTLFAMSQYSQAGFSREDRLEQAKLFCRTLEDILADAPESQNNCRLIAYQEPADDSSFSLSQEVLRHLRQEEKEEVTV
human wild type STING (WT STING), sequence (Q86WV6 whole entry H232R): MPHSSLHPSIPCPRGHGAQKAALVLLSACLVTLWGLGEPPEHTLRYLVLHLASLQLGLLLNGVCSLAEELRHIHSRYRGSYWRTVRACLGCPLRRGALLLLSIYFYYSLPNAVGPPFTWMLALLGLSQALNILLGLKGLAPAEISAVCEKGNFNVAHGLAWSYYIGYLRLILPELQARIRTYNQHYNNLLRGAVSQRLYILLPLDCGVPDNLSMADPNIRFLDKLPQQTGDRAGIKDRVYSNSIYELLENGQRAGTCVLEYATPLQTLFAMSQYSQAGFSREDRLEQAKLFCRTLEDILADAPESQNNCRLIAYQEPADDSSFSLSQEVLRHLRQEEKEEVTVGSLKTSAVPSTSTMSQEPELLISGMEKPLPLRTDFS
T2 sequence (Q86WV6 140-343 G230A/H232R/R293Q): as the sequence (Q86WV6 140-343 H232R) above, with G91A, R154Q counted along it

What is called ΔTm is the change in melting temperature against a reference sample. One may read the EC50 as the concentration at which the effect is half-maximal. For `Nc1nc2c(ncn2[C@@H]2O[C@@H]3COP(=O)(O)CO[C@H]4[C@H](O)[C@H](n5cnc6c(N)ncnc65)O[C@@H]4COP(=O)(O)O[C@@H]2[C@@H]3O)c(=O)[nH]1` [Example 16, (1R,6R,8R,9S,10S,16R,18R,19R)-18-(2-amino-6-oxo-6,9-dihydro-1H-purin-9-yl)-8-(6-amino-9H-purin-9-yl)-3,9,13,19-tetrahydroxy-2,4,7,11,14,17-hexaoxa-3λ^5,13λ^5-diphosphatricyclo[14.2.1.0^6,^10]nonadecane-3,13-dione], the ΔTm at 150 µM in experiment [1] came out at 15.8 °C; in experiment [2], 18.7 °C. In addition, the EC50 in experiment [3] was determined as 40 nM.
In the case of `Nc1nc2c(ncn2[C@@H]2O[C@@H]3COP(=O)(O)CO[C@H]4[C@@H](F)[C@H](n5cnc6c(N)ncnc65)O[C@@H]4COP(=O)(O)O[C@@H]2[C@@H]3F)c(=O)[nH]1` [Example 17, (1S,6R,8R,9R,10R,16R,18R,19R)-18-(2-amino-6-oxo-6,9-dihydro-1H-purin-9-yl)-8-(6-amino-9H-purin-9-yl)-9,19-difluoro-3,13-dihydroxy-2,4,7,11,14,17-hexaoxa-3λ^5,13λ^5-diphosphatricyclo[14.2.1.0^6,^10]nonadecane-3,13-dione], the ΔTm at 150 µM worked out at 21.7 °C in experiment [1] and 27.3 °C in experiment [2]. Further, in experiment [3], the EC50 was 20 nM.
With `Nc1nc2c(ncn2[C@@H]2O[C@@H]3COP(=O)(O)CO[C@H]4[C@@H](F)[C@H](n5cnc6c(N)ncnc65)O[C@@H]4COP(=O)(O)O[C@@H]2C3)c(=O)[nH]1` [Example 18, (1R,6R,8R,9R,10R,16S,18R)-18-(2-amino-6-oxo-6,9-dihydro-1H-purin-9-yl)-8-(6-amino-9H-purin-9-yl)-9-fluoro-3,13-dihydroxy-2,4,7,11,14,17-hexaoxa-3λ^5,13λ^5-diphosphatricyclo[14.2.1.0^6,^10]nonadecane-3,13-dione], the results for the ΔTm at 150 µM in experiment [1] and in experiment [2] were 19 °C and 23.9 °C, respectively. Moreover, the EC50 in experiment [3] came to 20 nM.
The like results for `Nc1nc2c(ncn2[C@@H]2O[C@@H]3COP(=O)(O)CO[C@H]4[C@@H](O)[C@H](n5cnc6c(N)ncnc65)O[C@@H]4COP(=O)(O)O[C@@H]2[C@@H]3F)c(=O)[nH]1` [Example 19, (1S,6R,8R,9R,10S,16R,18R,19R)-18-(2-amino-6-oxo-6,9-dihydro-1H-purin-9-yl)-8-(6-amino-9H-purin-9-yl)-19-fluoro-3,9,13-trihydroxy-2,4,7,11,14,17-hexaoxa-3λ^5,13λ^5-diphosphatricyclo[14.2.1.0^6,^10]nonadecane-3,13-dione] were, in that order, 18.2 °C, 25.1 °C and 2 nM.
Taken in the same sequence, the figures for `Nc1nc2c(ncn2[C@@H]2O[C@@H]3COP(=O)(O)CO[C@H]4C[C@H](n5cnc6c(N)ncnc65)O[C@@H]4COP(=O)(O)O[C@@H]2[C@@H]3F)c(=O)[nH]1` [Example 20, (1S,6R,8R,10S,16R,18R,19R)-18-(2-amino-6-oxo-6,9-dihydro-1H-purin-9-yl)-8-(6-amino-9H-purin-9-yl)-19-fluoro-3,13-dihydroxy-2,4,7,11,14,17-hexaoxa-3λ^5,13λ^5-diphosphatricyclo[14.2.1.0^6,^10]nonadecane-3,13-dione] were 17.2 °C, 23.5 °C and 5 nM.
The like results for `Nc1nc2c(ncn2[C@@H]2O[C@@H]3COP(=O)(O)CO[C@H]4[C@@H](O)[C@H](n5cnc6c(N)ncnc65)O[C@@H]4COP(=O)(O)O[C@@H]2C3)c(=O)[nH]1` [Example 21, (1R,6R,8R,9R,10S,16S,18R)-18-(2-amino-6-oxo-6,9-dihydro-1H-purin-9-yl)-8-(6-amino-9H-purin-9-yl)-3,9,13-trihydroxy-2,4,7,11,14,17-hexaoxa-3λ^5,13λ^5-diphosphatricyclo[14.2.1.0^6,^10]nonadecane-3,13-dione] were, in that order, 14.2 °C, 21 °C and 6 nM.
`Nc1ncnc2c1ncn2[C@@H]1O[C@@H]2COP(=O)(O)O[C@@H]3[C@H](F)[C@@H](COP(=O)(O)CO[C@H]2[C@H]1F)O[C@H]3n1cnc2c(N)ncnc21` [Example 22, (1S,6R,8R,9R,10R,16R,18R,19R)-8,18-bis(6-amino-9H-purin-9-yl)-9,19-difluoro-3,13-dihydroxy-2,4,7,11,14,17-hexaoxa-3λ^5,13λ^5-diphosphatricyclo[14.2.1.0^6,^10]nonadecane-3,13-dione]: the ΔTm at 150 µM in experiment [1] was 9 °C; in experiment [2], 11.1 °C. The EC50 in experiment [3] was found to be 15 nM.
As to `Nc1ncnc2c1ncn2[C@@H]1O[C@@H]2COP(=O)(O)CO[C@@H]3[C@H](O)[C@@H](COP(=O)(O)O[C@H]2[C@H]1O)O[C@H]3n1cnc2c(N)ncnc21` [Example 23, (1R,6S,7R,8R,10R,16R,17R,19R)-8,17-bis(6-amino-9H-purin-9-yl)-4,7,13,19-tetrahydroxy-3,5,9,12,15,18-hexaoxa-4λ^5,13λ^5-diphosphatricyclo[14.2.1.0^6,^10]nonadecane-4,13-dione], the ΔTm at 150 µM in experiment [1] was 0.2 °C; in experiment [2], 3.4 °C. Besides, the EC50 in experiment [3] was found to be 5900 nM.
The like results for `Nc1ncnc2c1ncn2[C@@H]1O[C@@H]2COP(=O)(O)O[C@@H]3[C@H](F)[C@@H](COP(=O)(O)CO[C@H]2[C@H]1F)O[C@H]3n1cnc2c(=O)[nH]cnc21` [Example 24] were, in that order, 20.4 °C, 25.7 °C and 20 nM.
Taken in the same sequence, the figures for `Nc1nc(N)c2ncn([C@@H]3O[C@@H]4COP(=O)(O)CO[C@H]5[C@@H](O)[C@H](n6cnc7c(N)ncnc76)O[C@@H]5COP(=O)(O)O[C@@H]3[C@@H]4F)c2n1` [Example 25, (1S,6R,8R,9R,10S,16R,18R,19R)-8-(6-amino-9H-purin-9-yl)-18-(2,6-diamino-9H-purin-9-yl)-19-fluoro-3,9,13-trihydroxy-2,4,7,11,14,17-hexaoxa-3λ^5,13λ^5-diphosphatricyclo[14.2.1.0^6,^10]nonadecane-3,13-dione] were 10.6 °C, 17.5 °C and 53 nM.
